Like-named read-outs stand apart in the source and are kept apart here.
Tests used:
Format in all cases: cell-based
[1] = test system: histone H3 hyperacetylation in HeLa cervical carcinoma cells; test: Cellular histone H3 hyperacetylation assay; conditions: Homo sapiens, 24 h, range stated for the listed group, read-out: Induction of histone H3 hyperacetylation EC50
Excerpt: To assess the cellular efficacy of a histone deacetylase inhibitor in vitro, an assay was set up in black clear-bottom 96-well plates and optimized for use on the Cellomics “ArrayScan II” platform for a quantitative calculation of histone acetylation. The protocol uses a polyclonal rabbit antibody, specifically binding to acetylated lysine 23 or, alternatively, acetylated lysine 9+14 of human histone H3 on fixed cells with an Alexa Fluor 488 labeled goat anti rabbit-IgG used for counterstaining (modified from Braunger et al. AACR annual conference 2003, Abstract 4556). 5×10^3 HeLa cervical carcinoma cells/well (ATCC CCL-2) in 200 μl Dulbecco's modified Eagle's medium (DMEM) containing 10% fetal calf serum are seeded at day 1 in Packard view plates and incubated for 24 h under standard cell culture conditions. On day 2, 1 μl test compound (200× final concentration) is added and incubation continued for further 24 h. On day 3, the culture medium is discarded and attached cells fixed for 15 min at room temperature by addition of 100 μl fixation buffer (3.7% v:v formaldehyde in phosphate buffered saline/PBS). After discarding the fixation buffer and one wash with blocking solution (1% BSA, 0.3% Tween 20 in PBS), cells are permeabilized at room temperature by addition of 100 μl/well permeabilization buffer (30.8 mM NaCl, 0.54 mM Na2HPO4, 0.31 mM KH2PO4, 0.1% v:v […]) for 15 min at room temperature. After discarding the permeabilization buffer and washing twice with 100 μl/well blocking solution at room temperature, the 1st antibody (anti-K23 histone H3 antibody, Cell Signaling No. 9674 or, alternatively, anti-K9+14 histone H3 antibody, Calbiochem No. 382158) in blocking solution (50 μl/well) is added. After incubation for 1 h at room temperature, the wells are washed twice at room temperature with 100 μl/well blocking solution before addition of the 2nd antibody (goat-anti-rabbit Alexa Fluor 488; MoBiTec No. A-11008) in blocking solution (50 μl/well). After further incubation for 1 h at room temperature, wells are washed twice with 100 μl/well blocking solution at room temperature. Finally, 100 μl/well PBS are added and image analysis performed on the Cellomics “ArrayScan II” platform. For EC50 determination, the percentage of positive cells showing nuclear fluorescence is determined and EC50 calculation done from concentration-effect curves by means of non-linear regression. For calibration, a positive (reference HDAC inhibitors like SAHA or NVP LBH-589) and a negative control were included.

[2] = test system: HeLa cervical carcinoma cells; test: Cellular cytotoxicity assay (Alamar Blue), HeLa; conditions: Homo sapiens, 72 h, range stated for the listed group
Procedure: (§1) The anti-proliferative activity of the histone deacetylase inhibitory compounds as described herein, was evaluated using the following cell lines: HeLa and HeLa—KB (cervical carcinoma), H460 (non small cell lung cancer), A549 (non-small cell lung cancer), MCF7 (breast carcinoma), MCF10A (normal, non tumorigenic breast epithelial), MDA-MB468 (breast carcinoma), MDA-MB435 (breast carcinoma), MDA-MB231 (breast carcinoma), SKBR-3 (breast carcinoma), SKOV-3 (ovarial carcinoma), A-2780 (ovarial carcinoma), RKO (colon carcinoma), HCT-15 (colon carcinoma), HCT-116 (colon carcinoma), PC3 (prostate carcinoma), BPH1 (benign prostate hyperplasia), AsPC1 (pancreatic carcinoma), Cal27 (tongue carcinoma), A-431 (vulva carcinoma), HeclA (endometrial carcinoma), Saos-2 (osteosarcoma), U87MG (glioblastoma), WM266-4 (melanoma), K562 (chronic myeloid carcinoma), EOL1 (acute hypereosinophilic myeloid leukemia), CCRF-CEM and CCRF-CEM VCR1000 (acute lymphoblastic leukemia sensitive and resistant towards Vincristine). For quantification of cellular proliferation/living cells the Alamar Blue (Resazurin) cell viability assay was applied (O'Brien et al. Eur J Biochem 267, 5421-5426, 2000). In this assay Resazurin is reduced to the fluorescent resorufin by cellular dehydrogenase activity, correlating with viable, proliferating cells. The examples were dissolved as 20 mM solutions in dimethylsulfoxide (DMSO) and subsequently diluted in semi-logarithmic steps. Cell lines were seeded at respective density into 96 well flat bottom plates in a volume of 200 μl per well. 24 hours after seeding 1 μl each of the compound dilutions were added into each well of the 96 well plate. Each compound dilution was tested as quadruplicates. Wells containing untreated control cells were filled with 200 μl DMEM medium containing 0.5% v:v DMSO. The cells were then incubated with the substances for 72 hours at 37° C. in a humidified atmosphere containing 5% carbon dioxide. To determine the viability of the cells, 20 μl of an Resazurin solution (Sigma; 90 mg/l) were added. After 4 hours incubation at 37° C. the fluorescence was measured at an extinction of 544 nm and an emission of 590 nm. For the calculation of the cell viability the emission value from untreated cells was set as 100% viability and the emission rates of treated cells were set in relation to the values of untreated cells. Viabilities were expressed as % values. The corresponding IC50 values of the compounds for cytotoxic activity are determined from the concentration-effect curves by means of non-linear regression.

[3] = test system: broad selection of non-malignant cell lines and fully transformed malignant cancer cell lines; test: Anti-proliferative activity across cell line panel (Alamar Blue); conditions: mean over non-malignant and malignant cell lines
Procedure: as §1

[4] = test system: A549 cell line; test: Combination experiment with Trail in A549; conditions: example at about its IC50 combined with Trail
Procedure: A549 non-small cell lung cancer, MDA-MB468 breast cancer and […] colorectal cancer cell lines were pretreated with the examples for 4 h before adding the chemotherapeutic agents or Trail and further incubation for 72 h total. The IC50 values of these combinations were determined from concentration-effect curves and compared to IC50 values of cell treated with the anti-cancer agent only.

[5] = test system: RKO colon carcinoma cells; test: Cell-cycle dependent cytotoxicity, RKO exop21 cell system; conditions: Homo sapiens, 72 h, range stated for the listed group
Procedure: For determination of cell-cycle dependent cytotoxicity, the RKO exop21 cell system was applied (Schmidt et al. Oncogene 19: 2423-2429, 2000). Briefly, RKO cells with/without p21^waf1 expression (2×10^4 cells/well induced, 6×10^3 cells/well not induced) were treated with the examples for 72 h and metabolic activity quantified as described before. The expression of p21^waf1 was induced by treatment with Pronasterone A, causing a complete proliferation arrest of RKO cells in the G1 and G2 phases of the cell division cycle.

[6] = test system: MDA-MB468 breast cancer cells; test: Breast cancer cell differentiation assay (Nile Red, flow cytometry); conditions: 24 h; for Neutral & phospholipids (%): differentiated cells; for Phospholipids (%): undifferentiated cells
Procedure: For quantification of MDA-MB468 breast cancer cell differentiation (described by Munster et al. Canc. Res. 61(23), pp 8492, 2001), 1× E6 cells were seeded in 10 cm cell culture dishes and, after cultivation for 24 h, treated with HDI for further 24 h. Finally, cells were collected by trypsination, washed twice with PBS and resuspended in 1 ml of staining solution ([…] Nile Red in PBS). After incubation for at least 5 min at room temperature, cells were analysed by flow cytometry on a FACS Calibur device (Ex 488 nm, Em. at 530 nm/FL-1 and >630 nm/FL-3). From respective histograms the percentage of cells with fluorescence at 650 nm (phospholipids) and 530 nm+650 nm (phospho- and neutral lipids) were calculated. For microscopic analysis, MDA-MB468 cells were cultivated on two-well chamber slides, treated with test compound for 24 h, fixed with 1.5 vol % glutaraldehyde/PBS and finally treated with staining solution. After washing with PBS, cells were analysed by fluorescence microscopy.
The percentage of differentiated cells with neutral and phospholipids as well as undifferentiated cells with phospholipids only are summarized in the table 5.

[7] = arrested RKO cells, p21waf1 expressed, read-out: RKO arrested (p21^waf1 expressed) IC50
[8] = proliferating RKO cells, read-out: RKO proliferating IC50

| SMILES | EC50 [1] [µM] | IC50 [2] [nM] | IC50 [3] [nM] | Effect of combination with Trail [4] | IC50 [5, 7] [nM] | IC50 [5, 8] [nM] | Neutral & phospholipids (%) ([6]; 0.8 μM) | Phospholipids (%) ([6]; 0.8 μM) | Neutral & phospholipids (%) ([6]; 3 μM) | Phospholipids (%) ([6]; 3 μM) | Neutral & phospholipids (%) ([6]; 6 μM) | Phospholipids (%) ([6]; 6 μM) |
| --- | --- | --- | --- | --- | --- | --- | --- | --- | --- | --- | --- | --- |
| O=C(C=Cc1ccn(S(=O)(=O)Cc2ccccc2)c1)NO [Compound 2, N-Hydroxy-3-(1-phenylmethanesulfonyl-1H-pyrrol-3-yl)-acrylamide] | 2.15 to 51.3 | 800 to 21600 |  |  |  |  |  |  |  |  |  |  |
| O=C(/C=C/c1ccn(S(=O)(=O)c2ccc(-c3ccccn3)s2)c1)NO [Compound 24, (E)-N-Hydroxy-3-[1-(5-pyridin-2-yl-thiophene-2-sulfonyl)-1H-pyrrol-3-yl]-acrylamide] | 0.08 to 16 | 70 to 5000 | 570 | synergism is highly likely | 450 to 15000 | 150 to 5100 | 67.3 | 27.9 |  |  |  |  |
| CN(CCc1cc2ccccc2[nH]1)Cc1ccc(S(=O)(=O)n2ccc(/C=C/C(=O)NO)c2)cc1 [Compound 9, (E)-N-Hydroxy-3-(1-[4-(([2-(1H-indol-2-yl)-ethyl]-methyl-amino)-methyl)-benzenesulfonyl]-1H-pyrrol-3-yl)-acrylamide] |  | 70 to 5000 | 3700 | synergism is highly likely | 450 to 15000 | 150 to 5100 |  |  | 71.2 | 25.3 | 64.6 | 27.9 |

More lines, main results first:

| EC50 [1] [µM] | SMILES | IC50 [2] [nM] | IC50 [3] [nM] | Effect of combination with Trail [4] | IC50 [5, 7] [nM] | IC50 [5, 8] [nM] | Neutral & phospholipids (%) ([6]; 0.8 μM) | Phospholipids (%) ([6]; 0.8 μM) | Neutral & phospholipids (%) ([6]; 3 μM) | Phospholipids (%) ([6]; 3 μM) | Neutral & phospholipids (%) ([6]; 6 μM) | Phospholipids (%) ([6]; 6 μM) |
| --- | --- | --- | --- | --- | --- | --- | --- | --- | --- | --- | --- | --- |
| 2.15 to 51.3 | CN(C)c1ccc(S(=O)(=O)n2ccc(/C=C/C(=O)NO)c2)cc1 [Compound 4, (E)-3-[1-(4-Dimethylamino-benzenesulfonyl)-1H-pyrrol-3-yl]-N-hydroxy-acrylamide] | 800 to 21600 |  |  |  |  |  |  |  |  |  |  |
| 2.15 to 51.3 | Nc1ccccc1NC(=O)/C=C/c1ccn(S(=O)(=O)c2ccc(-c3ccccc3)cc2)c1 [Compound 7, (E)-N-(2-Amino-phenyl)-3-[1-(biphenyl-4-sulfonyl)-1H-pyrrol-3-yl]-acrylamide] | 800 to 21600 |  |  |  |  |  |  |  |  |  |  |
